# Experiments:
# [1] = Cytotoxicity (dye uptake cell viability) in HepG2-2.2.15 cells; conditions: human
# [2] = in vitro; conditions: human, MRC-5 cells (human embryonal lung fibroblasts)
# [3] = test system: Streptococcus pneumoniae; conditions: 5 micrograms per ml
# [4] = test system: Pseudomonas aeruginosa; conditions: 5 micrograms per ml
# [5] = test system: MRSA; conditions: 5 micrograms per ml
compound,measurement,setting,value
CSCC[C@H](NC(=O)[C@H](CCCNC(=N)N)NC(=O)[C@H](Cc1ccc(O)cc1)NC(=O)[C@@H]1CCCN1C(=O)CNC(=O)[C@H](CCC(=O)O)NC(=O)[C@H](CC(=O)O)NC(=O)[C@H](CCCCN)NC(=O)[C@H](CCCCN)NC(=O)[C@H](CCC(=O)O)NC(=O)[C@H](C)N)C(=O)N[C@@H](CCC(=O)O)C(=O)N[C@@H](Cc1c[nH]cn1)C(=O)N[C@@H](Cc1ccccc1)C(=O)N[C@@H](CCCNC(=N)N)C(=O)N[C@@H](Cc1c[nH]c2ccccc12)C(=O)NCC(=O)N[C@@H](CO)C(=O)N1CCC[C@H]1C(=O)N1CCC[C@H]1C(=O)N[C@@H](CCCCN)C(=O)N[C@@H](CC(=O)O)C(=O)O [Beta MSH],"viability at 144 h, 10 micrograms per ml",[1],100%
same,viability at 144 h,[2],100%
same,% inhibition,[3],0.0%
same,% inhibition,[4],0.0%
same,% inhibition,[5],0.0%

# — patent publication US20100323950A1, “USE OF BETA-MELANOTROPIN AS A THERAPEUTIC AGENT, EG FOR THE TREATMENT OF AIDS OR ALZHEIMER” (priority 2007, published 2010)
